The results in this text go back to patent US7615567B2, “Compounds and methods for promoting smoking cessation” (priority 2000, dated 2009).

Like-named read-outs stand apart in the source and are kept apart here.

Data set [1] addresses α4β2 nAChRs (Rattus norvegicus, UniProt P09483+P12390). The data set can be described thus: biochemical. The data set is classed as binding.
Setting [2] is: Table 1, [3H]epibatidine binding, rat cerebral cortex.
The mark [3] stands for this setting: read-out: α4β2 [^3H]Epibatidine (Ki), Table 1, male rat cerebral cortex homogenate, 0.5-2 nM [3H]epibatidine, Ki from IC50 by Cheng-Prusoff.

Chain of α4β2 nAChRs (P09483 31-630): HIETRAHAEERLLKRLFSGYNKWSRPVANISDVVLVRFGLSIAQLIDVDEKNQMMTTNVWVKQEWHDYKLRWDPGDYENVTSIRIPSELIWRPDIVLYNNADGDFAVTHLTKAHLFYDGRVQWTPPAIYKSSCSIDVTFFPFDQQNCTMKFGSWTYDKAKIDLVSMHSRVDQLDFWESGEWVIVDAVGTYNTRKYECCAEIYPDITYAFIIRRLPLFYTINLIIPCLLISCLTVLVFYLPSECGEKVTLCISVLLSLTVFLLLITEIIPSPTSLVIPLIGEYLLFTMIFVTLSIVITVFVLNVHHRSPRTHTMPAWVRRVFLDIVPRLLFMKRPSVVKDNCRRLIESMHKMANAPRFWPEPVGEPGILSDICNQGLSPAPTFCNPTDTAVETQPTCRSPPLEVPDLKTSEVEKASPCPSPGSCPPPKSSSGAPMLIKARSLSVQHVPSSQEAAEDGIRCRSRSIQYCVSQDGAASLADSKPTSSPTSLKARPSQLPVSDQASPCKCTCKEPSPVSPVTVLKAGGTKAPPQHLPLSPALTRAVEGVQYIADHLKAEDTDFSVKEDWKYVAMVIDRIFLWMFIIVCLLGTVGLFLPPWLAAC
Chain of α4β2 nAChRs (P12390 25-500): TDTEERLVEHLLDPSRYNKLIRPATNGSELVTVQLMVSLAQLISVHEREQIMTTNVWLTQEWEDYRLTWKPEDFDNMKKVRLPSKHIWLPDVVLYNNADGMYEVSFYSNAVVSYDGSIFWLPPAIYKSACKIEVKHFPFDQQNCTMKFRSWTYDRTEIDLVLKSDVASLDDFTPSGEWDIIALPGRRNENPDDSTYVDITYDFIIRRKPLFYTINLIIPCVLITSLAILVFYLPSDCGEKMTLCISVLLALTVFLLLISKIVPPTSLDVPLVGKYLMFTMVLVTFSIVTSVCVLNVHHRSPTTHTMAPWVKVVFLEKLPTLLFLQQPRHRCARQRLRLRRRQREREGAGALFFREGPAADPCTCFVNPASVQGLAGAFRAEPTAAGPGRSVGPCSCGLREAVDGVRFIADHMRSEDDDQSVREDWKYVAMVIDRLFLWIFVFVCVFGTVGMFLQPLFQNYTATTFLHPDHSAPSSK

Turning to `Clc1ncc(C2CC3CCC2N3)cc1-c1ccccc1` (centres unmarked) [RTI-7527-2], in data set [1] (setting [2]), the “Hill Slope” value is reported as 0.81 ± 0.02. Moreover, the Ki in data set [1] (setting [3]) was 0.021 ± 0.005 nM.

For the compound `Ic1ncc(C2CC3CCC2N3)cc1-c1ccccc1` (centres unmarked) [RTI-7527-3], the inhibition constant Ki in data set [1] stood at 0.019 ± 0.002 nM. The “Hill Slope” value in data set [1] (setting [2]) is given as 0.84 ± 0.02.

As for `Clc1ncc(C2CC3CCC2N3)cc1I` (centres unmarked) [RTI-7527-4], the affinity in data set [1], expressed as Ki, was 0.012 ± 0.0003 nM. Moreover, the “Hill Slope” value in data set [1] (setting [2]) was 0.83 ± 0.03.

The compound `Clc1cc(C2CC3CCC2N3)cnc1Cl` (centres unmarked) [RTI-7527-5] displayed a melting point of 75 to 80 °C. For the same compound, the affinity in data set [1] corresponds to a Ki of 0.015 ± 0.001 nM. For the same compound, the “Hill Slope” value in data set [1] (setting [2]) was 0.87 ± 0.04.

For `Nc1ncc(C2CC3CCC2N3)cc1I` (stereo not drawn) [RTI-7527-24, 2-exo-[5′-(3′-Iodo-2′-aminopyridinyl)]-7-azabicyclo[2.2.1]-heptane], in data set [1] (Table 1, [3H]epibatidine binding, rat cerebral cortex, listed as 34), the “Hill Slope” value worked out at 1.08 ± 0.03. Further, the inhibitory constant (Ki) in data set [1] (setting [3]) came out at 35.5 ± 5.4 nM.

The compound `Brc1cc(C2CC3CCC2N3)cnc1I` (centres unmarked) [RTI-7527-50] showed an inhibition constant Ki in data set [1] of 0.027 ± 0.002 nM. Moreover, the “Hill Slope” value in data set [1] (setting [2]) stood at 0.96 ± 0.05.

`Nc1ncc(C2CC3CCC2N3)cc1-c1ccccc1` (centres unmarked) [RTI-7527-51] showed a Ki in data set [1] of 0.33 ± 0.05 nM. In data set [1] (setting [2]), the “Hill Slope” value came to 0.93 ± 0.03.

As to `Clc1ncc(C2CC3CCC2N3)cc1Br` (centres unmarked) [RTI-7527-53], the “Hill Slope” value in data set [1] (setting [2]) is reported as 0.95 ± 0.09. Moreover, in data set [1] (setting [3]), the Ki came out at 0.013 ± 0.001 nM.

In data set [1], `Nc1ncc(C2CC3CCC2N3)cc1I` (centres unmarked) [RTI-7527-57] showed an inhibition constant (Ki) of 1.47 ± 0.12 nM. The “Hill Slope” value in data set [1] (Table 1, [3H]epibatidine binding, rat cerebral cortex, listed as 24) is listed as 1.07 ± 0.14.

Take `CON=C1C2CCC1C(c1ccc(Cl)nc1)C2` (centres unmarked) [compound 2]: in data set [1], the inhibition constant (Ki) was more than 1000 nM.

In the case of `NC1C2CCC1C(c1ccc(Cl)nc1)C2` (centres unmarked) [compound 3], in data set [1], the inhibition constant Ki came to 8.2 ± 0.08 nM. The “Hill Slope” value in data set [1] (setting [2]) is listed as 1.2 ± 0.04.

Consider `Cc1nc(Cl)ccc1C1CC2CCC1N2` (centres unmarked) [compound 5], for which the Ki in data set [1] came out at 256 ± 74 nM. For the same compound, the “Hill Slope” value in data set [1] (setting [2]) was 1.1 ± 0.03.

`CN1C2CCC1C(c1ccc(Cl)nc1)C2` (centres unmarked) [compound 11] came in with a melting point of 100 to 102 °C. Besides, the Ki in data set [1] turned out to be 22.8 ± 0.001 nM. Besides, the “Hill Slope” value in data set [1] (second table (structures A, B, C), [3H]epibatidine binding, rat cerebral cortex) is given as 1.07 ± 0.05.

For `Fc1ccc(C2CC3CCC2N3)cn1` (centres unmarked) [compound 13], in data set [1] (setting [2]), the “Hill Slope” value is listed as 0.9 ± 0.02. Besides, the Ki in data set [1] (setting [3]) was 0.027 ± 0.001 nM.

For `CN(C)c1ccc(C2CC3CCC2N3)cn1` (centres unmarked) [compound 19], the “Hill Slope” value in data set [1] (setting [2]) is recorded as 1.0 ± 0.01. Moreover, the inhibitory constant (Ki) in data set [1] (setting [3]) was found to be 26.4 ± 1.4 nM.

For the compound `Oc1ncc(C2CC3CCC2N3)cc1-c1ccccc1` (centres unmarked) [compound 29], in data set [1], the “Hill Slope” value is 1.04 ± 0.07 and the affinity corresponds to a Ki of 51.9 ± 2 nM.

Turning to `Clc1cncc(C2CC3CCC2N3)c1` (centres unmarked) [compound 35], the Ki in data set [1] stood at 0.12 ± 0.006 nM. For the same compound, the “Hill Slope” value in data set [1] (setting [2]) is on record as 0.9 ± 0.03.

`Fc1cncc(C2CC3CCC2N3)c1` (centres unmarked) [compound 36]: the “Hill Slope” value in data set [1] (setting [2]) was found to be 0.9 ± 0.01. Moreover, the inhibition constant (Ki) in data set [1] (setting [3]) amounted to 0.037 ± 0.001 nM.

The compound `Fc1ncc(C2CC3CCC2N3)cc1Cl` (centres unmarked) [compound 37] came in with a Ki in data set [1] of 0.02 ± 0.0003 nM. Besides, the “Hill Slope” value in data set [1] (setting [2]) was 0.8 ± 0.004.

The compound `Fc1cc(C2CC3CCC2N3)cnc1F` (centres unmarked) [compound 38] showed a Ki in data set [1] of 0.055 ± 0.001 nM. For the same compound, the “Hill Slope” value in data set [1] (setting [2]) is reported as 1.0 ± 0.01.

`Fc1ncc(C2CC3CCC2N3)cc1I` (centres unmarked) [compound 39]: in data set [1], the “Hill Slope” value amounted to 1.0 ± 0.05 and the inhibition constant (Ki) worked out at 0.076 ± 0.004 nM.

For `Ic1cncc(C2CC3CCC2N3)c1` (centres unmarked) [compound 41], the “Hill Slope” value in data set [1] (setting [2]) was found to be 0.9 ± 0.02. Moreover, in data set [1] (setting [3]), the inhibition constant (Ki) is 0.059 ± 0.001 nM.

With `Nc1ncc(C2CC3CCC2N3)cc1-c1cccc([N+](=O)[O-])c1` (centres unmarked) [compound 42], in data set [1], the “Hill Slope” value amounted to 1.1 ± 0.09 and the inhibition constant Ki stood at 0.047 ± 0.002 nM.

As for `COc1cccc(-c2cc(C3CC4CCC3N4)cnc2Cl)c1` (centres unmarked) [compound 45], the inhibition constant (Ki) in data set [1] stood at 0.019 ± 0.005 nM. The “Hill Slope” value in data set [1] (setting [2]) was determined as 0.8 ± 0.02.

For the compound `COc1cccc(-c2cncc(C3CC4CCC3N4)c2)c1` (centres unmarked) [compound 46], the “Hill Slope” value in data set [1] (setting [2]) was 0.9 ± 0.03. In addition, in data set [1] (setting [3]), the inhibition constant Ki is 0.43 ± 0.05 nM.

The compound `Fc1ncc(C2CC3CCC2N3)cc1-c1ccccc1` (centres unmarked) [compound 47] registered an inhibitory constant (Ki) in data set [1] of 0.14 ± 0.07 nM. In data set [1] (setting [2]), the “Hill Slope” value was 1.1 ± 0.04.

The compound `OC1C2CCC1C(c1ccc(Cl)nc1)C2` (centres unmarked) [compound 50] returned a Ki in data set [1] of more than 1000 nM.

Consider `Nc1ccc(C2CC3CCC2C3)cn1` (centres unmarked) [compound 54], for which, in data set [1], the “Hill Slope” value is reported as 1.1 and affinity was put at a Ki of 2200 nM.
